In patent US9193687B2 (priority 2007, dated 2015):
Values joined by “and” are separate entries in the source; they are usually repeats but may differ in a detail not shown here. Equal entries are not always repeated.

Columns and labels:
[1] = tested on: CCRF-CEM human lymphoblastic leukemia cells; assay: cells; conditions: 72 h, read-out: Cytotoxicity IC50, CCRF-CEM
[2] = tested on: Human colon carcinoma HCT-116 cells; assay: cells; conditions: HCT-116, 72 h, read-out: Cytotoxicity IC50, HCT-116
[3] = tested on: Human mammary carcinoma (MX-1) tumor cells; assay: In vitro cytotoxicity, SRB assay, 72-hr incubation; conditions: Homo sapiens, 72 h, read-out: Cytotoxicity IC50, MX-1
CCRF-CEM/Taxol = assay: In vitro cytotoxicity, XTT assay, taxol-resistant subline; conditions: Homo sapiens, CCRF-CEM, 72 h, read-out: Cytotoxicity IC50, CCRF-CEM/Taxol
[4] = tested on: human mammary carcinoma MX-1 xenograft; assay: Antitumor therapeutic effect against MX-1 xenograft in nude mice; type: in vivo; conditions: for Therapeutic effect: complete tumor remission (CR), mice with CR/total and day / Maximal body-weight loss (%) / Therapeutic effect: tumor relapse: i.v. injection; for Therapeutic effect: complete tumor remission (CR), mice with CR/total and day: treatment from Day 8, dose and schedule per compound as in Table 3 (30-150 mg/kg); for Maximal body-weight loss (%) / Therapeutic effect: tumor relapse: dose and schedule per compound as in Table 3; for Remark (dose tolerability): BO-1053 70 mg/kg Q2Dx5, BO-1063 and BO-1065 100 mg/kg QDx3, i.v.
Experimental: Athymic nude mice bearing the nu/nu gene were obtained from NCI, Frederick, Md. and used for all human tumor xenografts. Male nude mice 6 weeks or older weighing 20-24 g or more were used. Compounds were administered via the tail vein for i.v. injection or infusion as described previously.^64 A typical formulation for chemotherapeutic studies for each drug was dissolved in DSMO to make a 25 mg/ml fresh solution, 0.4 ml of this solution was mixed with 0.3 ml of Tween 80, plus 1.3 ml to make 2 ml of 5 mg/ml solution. Bolus injection volume was 0.1-0.2 ml per mouse. Tumor volume was assessed by measuring length×width×height (or width) by using a caliper. For tumor-bearing nude mice during the course of the experiment, the body weight refers to total weight minus the weight of the tumor. All animal studies were conducted in accordance with the guidelines for the National Institute of Health Guide for the Care and Use of Animals and the protocol approved by the Institutional Animal Care and Use Committee.
The therapeutic effects of a drug against human tumor xenografts in nude mice, under the optimal therapeutic conditions but without any lethality due to drug toxicity, the following degrees of therapeutic effects are defined and calculated by the following formula: […]
where • T0 is the initial tumor size (in mm^3) at beginning of drug treatment; • Tc is tumor size of untreated control group on a given date; and • Tx is tumor size of the drug treated group on a given date.
[formula] • Tumor disappearance (complete remission or CR) is defined by the effect where • [Tx=0] for a period of time (in days) for a proportion of animals (NCR/N), where • N is the total number of animals in the group, and NCR is the number of mice in the group that achieved CR. • Tumor relapse is quantitatively calculated by • [The Day tumor relapsed (Drelp)—The Day CR achieved (DCR)] (Eq. 3) for a proportion of animals (Nrelp/N) where N is the total number of animals in the group, and Nrelp is the number of the mice in the group that relapsed. • The log cell kill (LCK) of the tumor tissue after a given chemotherapy that reached CR is estimated by: LCK=log [2^(Tumor remission in days/Tumor doubling time in days)] (Eq. 4)
Athymic nude mice bearing the nu/nu gene were used for human breast tumor MX-1 xenograft (FIGS. 3 and 4) and human brain glioma U87 GM xenograft (FIG. 5). Nude mice were obtained from National Cancer Institute, Frederick, Md. Male mice 6 weeks old or older weighing 22 g or more were used for experiments with subcutaneous tumor inoculation as described previously.^67 Drug was administrated via the tail vein by iv injection. Tumor volumes were assessed by measuring length×width×height (or width) by using caliper. Vehicle used was 20 μL DMSO in 180 μL saline. All animal studies were conducted in accordance with the guidelines of the U.S. National Institutes of Health Guide for the Care and Use of Animals and the protocol approved by the Institutional Animal Care and Use Committee.

Compound | IC50 [1] [nM] | IC50 [2] [nM] | IC50 [3] [nM] | IC50 (CCRF-CEM/Taxol) [nM] | Therapeutic effect: complete tumor remission (CR), mice with CR/total and day [4] | Maximal body-weight loss (%) [4] | Therapeutic effect: tumor relapse [4] | Remark (dose tolerability) [4]
O=C(Nc1ccc(N(CCCl)CCCl)cc1)Nc1c2ccccc2nc2ccccc12 [BO-1034, 1-acridin-9-yl-3-{4-[bis(2-chloroethyl)amino]phenyl}urea] | 230 | 900 | 810 | 390 | – | – | – | –
O=C(Nc1ccc(N(CCCl)CCCl)cc1)Nc1cc(CO)cc(Nc2c3ccccc3nc3ccccc23)c1 [BO-1037, 1-[3-(acridin-9-ylamino)-5-hydroxymethylphenyl]-3-{4-[bis(2-chloroethyl)amino]phenyl}urea] | 60 | 220 | 370 | 17100 | achieved CR in parts of the mice and 2/3 CR on D23, 25 | 12% | 2/3 relapsed on D40, 40 | –
Cc1cccc2c(Nc3cc(CO)cc(NC(=O)Nc4ccc(N(CCCl)CCCl)cc4)c3)c3ccccc3nc12 [BO-1050, 1-{4-[bis(2-chloroethyl)amino]phenyl}-3-[3-hydroxymethyl-5-(4-methylacridin-9-ylamino)phenyl]urea] | – | 260 | 120 | 390 | achieved CR in parts of the mice and 2/2 CR on D16, 18 | 9% | No relapse on D26 | –
Cc1ccc(NC(=O)Nc2ccc(N(CCCl)CCCl)cc2)cc1Nc1c2cccc(C)c2nc2c(C(=O)NCCN(C)C)cccc12 [BO-1053, 9-[5-(3-{4-[bis(2-chloroethyl)amino]phenyl}ureido)-2-methyl-phenylamino]-5-methyl-acridine-4-carboxylic acid (2-dimethylaminoethyl)amide] | 10 | 60 | 60 | 180 | achieved complete tumor remission | – | – | Too high dose
O=C(Nc1cc(CO)cc(Nc2c3ccccc3nc3ccccc23)c1)Oc1ccc(N(CCCl)CCCl)cc1 [BO-1062, [3-(acridin-9-ylamino)-5-hydroxymethylphenyl]carbamic acid 4-[bis(2-chloroethyl)amino]phenyl ester] | 80 | 570 | 100 | 140 | achieved complete tumor remission and 1/1 CR on D22 | 17% | – | –
Cc1cccc2c(Nc3cc(CO)cc(NC(=O)Oc4ccc(N(CCCl)CCCl)cc4)c3)c3ccccc3nc12 [BO-1063, [3-hydroxymethyl-5-(4-methylacridin-9-ylamino)phenyl]carbamic acid 4-[bis(2-chloroethyl)-amino]phenyl ester] | 70 | 440 | 80 | 100 | – | – | – | Too high dose
Cc1ccc(Nc2c3ccccc3nc3c(C)cccc23)cc1NC(=O)Oc1ccc(N(CCCl)CCCl)cc1 [BO-1064, [2-methyl-5-(4-methylacridin-9-ylamino)phenyl]-carbamic acid 4-[bis(2-chloroethyl)amino]phenyl ester] | 130 | 610 | 290 | 170 | achieved complete tumor remission and 1/1 CR on D22 | Died of | – | –
CCOC(=O)Nc1cc(COC(=O)Oc2ccc(N(CCCl)CCCl)cc2)cc(Nc2c3ccccc3nc3ccccc23)c1 [BO-1065, carbonic acid 3-(acridin-9-yl-amino)-5-ethoxycarbonylaminobenzyl ester 4-[bis(2-chloroethyl)amino]phenyl ester] | – | 640 | 90 | 510 | – | – | – | Too high dose
COc1ccc(Nc2c3ccccc3nc3ccccc23)cc1NC(=O)Nc1ccc(N(CCCl)CCCl)cc1 [BO-1148] | 10 | 260 | 1200 | 30 | – | – | – | –
Cc1ccc(NC(=O)Nc2ccc(N(CCCl)CCCl)cc2)cc1Nc1c2ccccc2nc2c(C)cccc12 [BO-1149] | 10 | 160 | 590 | 20 | – | – | – | –
COc1ccc(Nc2c3ccccc3nc3c(C)cccc23)cc1NC(=O)Nc1ccc(N(CCCl)CCCl)cc1 [BO-1154] | 10 | 70 | 370 | 10 | – | – | – | –
Cc1ccc(Nc2c3ccccc3nc3ccccc23)cc1NC(=O)Oc1ccc(N(CCCl)CCCl)cc1 [BO-1171] | 80 | 430 | 210 | 220 | – | – | – | –
COc1ccc(Nc2c3ccccc3nc3ccccc23)cc1NC(=O)Oc1ccc(N(CCCl)CCCl)cc1 [BO-1172] | 90 | 190 | 180 | 160 | – | – | – | –
COc1ccc(Nc2c3ccccc3nc3c(C)cccc23)cc1NC(=O)Oc1ccc(N(CCCl)CCCl)cc1 [BO-1213] | 20 | – | 140 | 30 | – | – | – | –
COc1ccc2nc(C)cc(NNC(=O)Nc3ccc(N(CCCl)CCCl)cc3)c2c1 [BO-1228, N-{4-[bis(2-chloroethyl)amino]phenyl}-2-(6-methoxy-2-methyl-4-quinolinyl)hydrazinecarboxamide] | 200 | 260 | 260 | 1540 | – | – | – | –
Cc1cc(NC(=O)Nc2ccc(N(CCCl)CCCl)cc2)c2cc(N(C)C)ccc2n1 [BO-1231] | 110 | 300 | 180 | 310 | – | – | – | –
Cc1cc(NNC(=O)Nc2ccc(N(CCCl)CCCl)cc2)c2ccccc2n1 [BO-1233, N-{4-[bis(2-chloroethyl)amino]phenyl}-2-(2-methyl-4-quinolinyl)hydrazinecarboxamide] | 120 | 380 | 360 | 1830 | – | – | – | –
Cc1cc(NNC(=O)Nc2ccc(N(CCCl)CCCl)cc2)c2cc(N(C)C)ccc2n1 [BO-1242] | 60 | 150 | 280 | 4190 | – | – | – | –
O=C(NNc1cc(-c2ccccc2)nc2cc3c(cc12)OCO3)Nc1ccc(N(CCCl)CCCl)cc1 [BO-1391] | 260 | 2020 | 1020 | 570 | – | – | – | –
O=C(NNc1cc(-c2ccccc2)nc2ccccc12)Nc1ccc(N(CCCl)CCCl)cc1 [BO-1393] | 580 | 1260 | 1780 | 910 | – | – | – | –
O=C(Nc1ccc(Nc2cc(-c3ccccc3)nc3ccccc23)cc1)Nc1ccc(N(CCCl)CCCl)cc1 [BO-2294] | 3010 | – | – | – | – | – | – | –
O=C(Nc1ccc(N(CCCl)CCCl)cc1)Nc1cccc(Nc2cc(-c3ccccc3)nc3ccccc23)c1 [BO-2295] | 1860 | – | – | – | – | – | – | –
CC(=O)O[C@H]1C(=O)[C@@]2(C)[C@H]([C@H](OC(=O)c3ccccc3)[C@]3(O)C[C@H](OC(=O)[C@H](O)[C@@H](NC(=O)c4ccccc4)c4ccccc4)C(C)=C1C3(C)C)[C@]1(OC(C)=O)CO[C@@H]1C[C@@H]2O [Taxol, reference compound] | – | – | 40 | 430 | – | – | – | –
CC[C@]1(O)C[C@@H]2CN(CCc3c([nH]c4ccccc34)[C@@](C(=O)OC)(c3cc4c(cc3OC)N(C)[C@H]3[C@@](O)(C(=O)OC)[C@H](OC(C)=O)[C@]5(CC)C=CCN6CC[C@]43[C@@H]65)C2)C1 [Vinblastine, reference compound] | – | – | – | 80 | – | – | – | –
